Source: patent US20040102365A1, “Pharmaceutical composition for prevention and remedy of osteoporosis” (priority 2003, published 2004)
Where a SMILES comes first, the peptide text is derived from it. [ ]: non-standard residue; d: D form. dLac(3-vinyl) = C=CC[C@@H](O)C(=O)O; dHica = CC(C)C[C@@H](O)C(=O)O; NMeV = CN[C@H](C(=O)O)C(C)C; NMeA = CN[C@@H](C)C(=O)O; βAla = NCCC(=O)O

Tests used:
[1] = test system: ^45Ca-labelled fetal radius and ulna, organ culture; test: Inhibition of ^45Ca release in mouse organ culture (PTH-induced calcium release); assay type: cell-based, ddY mice
Procedure: 15 to 16 days pregnant ddY mice were injected subtaneously with a solution of ^45Ca-labelled calcium chloride to label their bone. After one day, mice were anesthetized with ether, and disinfected in 70% ethanol. Fetuses were obtained from, and transferred to a sterile dish. Under a stereo microscope, after cutting forelegs and peeling off skin thereof, attached muscle was removed from radius and ulna, and cartilage portions existing at the both ends of the two bones were then obtained. During the preparation, the bones were kept moist. Before culturing, a stainless steel membrane was put into a 24-well plate containing 0.5 mL BGJb medium (Gibco, USA), and the obtained bone was then placed onto the membrane. After incubation for 24 hours, bone was transferred to destruxin E-containing medium and further incubated for 72 hours. Herein, parathyroid hormone (PTH) inducing release of calcium was used, and the inhibitory effect of destruxin E on the calcium release by PTH was analyzed. The amounts of ^45Ca remaining in bone and released to medium were measured using 5% TCA, and bone-resorbing activity was calculated as follows.
Bone-resorbing activity=released amount of ^45Ca to medium/(released amount of ^45Ca to medium+amount of ^45Ca remaining in bone)×100

[2] = test system: osteoclasts; test: Pit formation assay (bone resorption by osteoclasts on bone fragments); assay type: cell-based, mouse; design: Inhibitory Activity versus pit formation: unit not given here
Procedure: Since most osteoclasts growing on bone surfaces have the ability to absorb bone, leaving pits, whether the osteoclasts prepared in Example 1 have bone resorption ability or was not determined by analyzing the number and volume of pits.
Bone fragments were prepared in a thickness of 1 mm, put in methanol, disinfected under UV light on a clean bench, and then transferred to wells of a 96-well plate, after which 100 μl α-MEM medium (10% FCS) was added. […] After incubation for 1 day, bone fragments and osteoclasts growing on them were observed micoscopically and then stored at 4° C.

[3] = test system: osteoclasts; test: Actin ring assay; assay type: cell-based, mouse
Procedure: In order to observe the formation and shape of actin rings, which function to support the cytoskeleton structure of osteoclasts, an actin ring assay was performed. After removing culture medium, osteoclasts cultured in the presence or absence of destruxin E were fixed with formalin for 10 mins, washed once with a solution containing Tween 20, and treated with 300 U rhodamine phalloidin (Sigma, USA) dissolved in methanol in a dark room.

[4] = test system: osteoclasts; test: Effect on the morphology and survival of osteoclasts; assay type: cell-based, mouse

Compound | Inhibitory effect on ^45Ca release, destruxin E compared with eel calcitonin [1] | Inhibitory Activity versus pit formation ([2]; 0.1 μM destruxin B) | Inhibitory Activity versus pit formation ([2]; 0.5 μM destruxin B) | Inhibitory Activity versus pit formation ([2]; 1 μM destruxin B) | Inhibitory Activity versus pit formation ([2]; 5 μM destruxin B) | IC50 ([2]; read-out: 50% inhibition (IC50) of pit formation) [nM] | Inhibitory Activity versus actin ring (%) ([3]; 0.1 μM destruxin B) | Inhibitory Activity versus actin ring (%) ([3]; 0.5 μM destruxin B) | Inhibitory Activity versus actin ring (%) ([3]; 1 μM destruxin B) | Inhibitory Activity versus actin ring (%) ([3]; 5 μM destruxin B) | IC50 ([3]; read-out: 50% inhibition (IC50) of actin ring formation) [nM] | MIC: Minimum Inhibitory Concentration at which survival of all osteoclasts is inhibited [4] [µM]
eel calcitonin | the inhibitory effect of destruxin E is higher than that of eel calcitonin | – | – | – | – | – | – | – | – | – | – | –
CC[C@H](C)[C@@H]1NC(=O)[C@@H]2CCCN2C(=O)[C@@H](CC(C)C)OC(=O)CCNC(=O)[C@H](C)N(C)C(=O)[C@H](C(C)C)N(C)C1=O [Destruxin B] (cyclo([dHica]PI[NMeV][NMeA][βAla])) | – | 25 | 71 | 94 | 100 | 200 | 12 | 41 | 92 | 100 | 600 | 10
C=CC[C@H]1OC(=O)CCNC(=O)[C@H](C)N(C)C(=O)[C@H](C(C)C)N(C)C(=O)[C@H]([C@@H](C)CC)NC(=O)[C@@H]2CCCN2C1=O [Destruxin A] (cyclo([dLac(3-vinyl)]PI[NMeV][NMeA][βAla])) | – | – | – | – | – | – | – | – | – | – | – | 20
